Assay results published in ChEMBL document CHEMBL1201862, “PubChem BioAssay data set” (2004).
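Five compound concentrations were applied to cells in 96-well plates for 48 hours; endpoints were derived by simple linear interpolation of the resulting dose-response curve. Here, GI50 denotes the concentration required for 50% inhibition of growth.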 Calls of active or inactive are those of the source. Cut-off read from the data, not from the text of the source: active = GI50 up to about 1.1 µM and inactive = higher.

Experiments:
Assay in all cases: growth of human tumour cells (NCI), 48 h
HOP-62 = system: HOP-62
UACC-62 = system: UACC-62
SK-MEL-5 = system: SK-MEL-5
DU-145 = system: DU-145
PC-3 = system: PC-3
A498 = system: A498
BT-549 = system: BT-549
UO-31 = system: UO-31
RXF 393 = system: RXF 393
NCI-H226 = system: NCI-H226
HCT-15 = system: HCT-15
SR = system: SR
NCI-H460 = system: NCI-H460
SF-295 = system: SF-295
KM12 = system: KM12
K562 = system: K562
OVCAR-3 = system: OVCAR-3
COLO 205 = system: COLO 205
MDA-MB-435 = system: MDA-MB-435
HT-29 = system: HT-29
EKVX = system: EKVX
HL-60 = system: HL-60
SNB-19 = system: SNB-19
SW-620 = system: SW-620
HCT-116 = system: HCT-116
SNB-75 = system: SNB-75
SK-MEL-2 = system: SK-MEL-2
UACC-257 = system: UACC-257
NCI-H522 = system: NCI-H522
T47D = system: T47D
TK-10 = system: TK-10
OVCAR-4 = system: OVCAR-4
OVCAR-5 = system: OVCAR-5
Malme-3M = system: Malme-3M
U-251 = system: U-251
ACHN = system: ACHN
MCF7 = system: MCF7
MOLT-4 = system: MOLT-4
NCI/ADR-RES = system: NCI/ADR-RES
IGROV-1 = system: IGROV-1
NCI-H23 = system: NCI-H23
SN12C = system: SN12C
SF-268 = system: SF-268
MDA-N = system: MDA-N
Hs-578T = system: Hs-578T
CAKI-1 = system: CAKI-1
LOX IMVI = system: LOX IMVI
MDA-MB-231 = system: MDA-MB-231
786-0 = system: 786-0
OVCAR-8 = system: OVCAR-8
SK-MEL-28 = system: SK-MEL-28
RPMI-8226 = system: RPMI-8226
HCC 2998 = system: HCC 2998
HOP-92 = system: HOP-92
SK-OV-3 = system: SK-OV-3
M14 = system: M14
A549 = system: A549
SF-539 = system: SF-539
CCRF-CEM = system: CCRF-CEM

For `CC(=O)OCC1OC(Nc2ccc3nc(C)n(-c4cccc(C)c4)c(=O)c3c2)C(OC(C)=O)C(OC(C)=O)C1OC(C)=O` (centres undefined), the GI50 (HOP-62) was > 62.5 µM (inactive), the GI50 (UACC-62) was > 62.5 µM (inactive) and the GI50 (SK-MEL-5) was > 62.5 µM (inactive). The GI50 (DU-145) was > 62.5 µM (inactive), the GI50 (PC-3) was > 62.5 µM (inactive) and the GI50 (A498) was > 62.5 µM (inactive). For the same compound, the GI50 (BT-549) was > 62.5 µM (inactive), the GI50 (UO-31) was > 62.5 µM (inactive) and the GI50 (RXF 393) was > 62.5 µM (inactive). For the same compound, the GI50 (NCI-H226) was > 62.5 µM (inactive), the GI50 (HCT-15) was > 62.5 µM and the GI50 (SR) was > 62.5 µM (inactive). The GI50 (NCI-H460) was > 62.5 µM (inactive), the GI50 (SF-295) was > 62.5 µM (inactive) and the GI50 (KM12) was > 62.5 µM (inactive). The GI50 (K562) was > 62.5 µM (inactive), the GI50 (OVCAR-3) was > 62.5 µM (inactive) and the GI50 (COLO 205) was > 62.5 µM (inactive). The GI50 (MDA-MB-435) was > 62.5 µM (inactive), the GI50 (HT-29) was > 62.5 µM (inactive) and the GI50 (EKVX) was > 62.5 µM (inactive). For the same compound, the GI50 (HL-60) was > 62.5 µM (inactive), the GI50 (SNB-19) was > 62.5 µM (inactive) and the GI50 (SW-620) was > 62.5 µM (inactive). The GI50 (HCT-116) was > 62.5 µM (inactive), the GI50 (SNB-75) was > 62.5 µM (inactive) and the GI50 (SK-MEL-2) was > 62.5 µM (inactive). The GI50 (UACC-257) was > 62.5 µM (inactive), the GI50 (NCI-H522) was > 62.5 µM (inactive) and the GI50 (T47D) was > 62.5 µM (inactive). The GI50 (TK-10) was > 62.5 µM (inactive), the GI50 (OVCAR-4) was > 62.5 µM (inactive) and the GI50 (OVCAR-5) was > 62.5 µM (inactive). For the same compound, the GI50 (Malme-3M) was > 62.5 µM (inactive), the GI50 (U-251) was > 62.5 µM (inactive) and the GI50 (ACHN) was > 62.5 µM (inactive). For the same compound, the GI50 (MCF7) was > 62.5 µM (inactive), the GI50 (MOLT-4) was > 62.5 µM (inactive) and the GI50 (NCI/ADR-RES) was > 62.5 µM (inactive). For the same compound, the GI50 (IGROV-1) was > 62.5 µM (inactive), the GI50 (NCI-H23) was > 62.5 µM (inactive) and the GI50 (SN12C) was > 62.5 µM (inactive). For the same compound, the GI50 (SF-268) was > 62.5 µM (inactive), the GI50 (MDA-N) was > 62.5 µM (inactive) and the GI50 (Hs-578T) was > 62.5 µM (inactive). For the same compound, the GI50 (CAKI-1) was > 62.5 µM (inactive), the GI50 (LOX IMVI) was > 62.5 µM (inactive) and the GI50 (MDA-MB-231) was > 62.5 µM (inactive). The GI50 (786-0) was > 62.5 µM (inactive), the GI50 (OVCAR-8) was > 62.5 µM (inactive) and the GI50 (SK-MEL-28) was > 62.5 µM (inactive). For the same compound, the GI50 (RPMI-8226) was 36.4 µM (inactive) and the GI50 (HCC 2998) was > 62.5 µM (inactive).

`Cc1cccc(C)c1Nc1nc(C)c(C(=O)CC(=O)C(=O)Nc2c(C(C)C)cccc2C(C)C)s1` was tested, and the GI50 (HOP-62) was > 100 µM (inactive), the GI50 (UACC-62) was > 100 µM (inactive) and the GI50 (SK-MEL-5) was > 100 µM (inactive). The GI50 (DU-145) was > 100 µM (inactive), the GI50 (PC-3) was 78.3 µM (inactive) and the GI50 (BT-549) was > 100 µM (inactive). The GI50 (UO-31) was 39.4 µM (inactive), the GI50 (RXF 393) was 43.8 µM (inactive) and the GI50 (NCI-H226) was > 100 µM (inactive). The GI50 (HCT-15) was > 100 µM, the GI50 (HOP-92) was 43.4 µM (inactive) and the GI50 (SK-OV-3) was 89.7 µM (inactive). For the same compound, the GI50 (SR) was 69.3 µM (inactive), the GI50 (M14) was > 100 µM (inactive) and the GI50 (NCI-H460) was > 100 µM (inactive). For the same compound, the GI50 (SF-295) was 58.5 µM (inactive), the GI50 (KM12) was > 100 µM (inactive) and the GI50 (K562) was > 100 µM (inactive). The GI50 (OVCAR-3) was 72.6 µM (inactive), the GI50 (COLO 205) was > 100 µM (inactive) and the GI50 (MDA-MB-435) was > 100 µM (inactive). For the same compound, the GI50 (HT-29) was > 100 µM (inactive), the GI50 (EKVX) was > 100 µM (inactive) and the GI50 (A549) was > 100 µM (inactive). For the same compound, the GI50 (HL-60) was 24.7 µM (inactive), the GI50 (SNB-19) was > 100 µM (inactive) and the GI50 (SW-620) was > 100 µM (inactive). For the same compound, the GI50 (HCT-116) was > 100 µM (inactive), the GI50 (SK-MEL-2) was > 100 µM (inactive) and the GI50 (UACC-257) was > 100 µM (inactive). The GI50 (NCI-H522) was > 100 µM (inactive), the GI50 (T47D) was > 100 µM (inactive) and the GI50 (TK-10) was > 100 µM (inactive). For the same compound, the GI50 (OVCAR-4) was > 100 µM (inactive), the GI50 (OVCAR-5) was > 100 µM (inactive) and the GI50 (U-251) was > 100 µM (inactive). For the same compound, the GI50 (ACHN) was > 100 µM (inactive), the GI50 (MCF7) was > 100 µM (inactive) and the GI50 (MOLT-4) was 72.9 µM (inactive). The GI50 (NCI/ADR-RES) was 73.8 µM (inactive), the GI50 (IGROV-1) was > 100 µM (inactive) and the GI50 (NCI-H23) was > 100 µM (inactive). The GI50 (SF-539) was > 100 µM (inactive), the GI50 (SN12C) was > 100 µM (inactive) and the GI50 (SF-268) was > 100 µM (inactive). The GI50 (MDA-N) was > 100 µM (inactive), the GI50 (Hs-578T) was > 100 µM (inactive) and the GI50 (CAKI-1) was > 100 µM (inactive). For the same compound, the GI50 (LOX IMVI) was > 100 µM (inactive), the GI50 (MDA-MB-231) was > 100 µM (inactive) and the GI50 (786-0) was > 100 µM (inactive). The GI50 (OVCAR-8) was > 100 µM (inactive), the GI50 (SK-MEL-28) was > 100 µM (inactive) and the GI50 (RPMI-8226) was 56.8 µM (inactive). The GI50 (HCC 2998) was > 100 µM (inactive).

With `CC(=O)Oc1ccc2cc(-c3ccccc3OC(C)=O)c(=O)oc2c1` the GI50 (HOP-62) was 54.1 µM (inactive), the GI50 (DU-145) was 21.7 µM (inactive) and the GI50 (PC-3) was > 100 µM (inactive). For the same compound, the GI50 (A498) was 40.7 µM (inactive), the GI50 (BT-549) was 4.17 µM (inactive) and the GI50 (UO-31) was 4.97 µM (inactive). For the same compound, the GI50 (NCI-H226) was 27.7 µM (inactive), the GI50 (HCT-15) was 33.7 µM and the GI50 (SR) was 7.69 µM (inactive). For the same compound, the GI50 (M14) was 51.4 µM (inactive), the GI50 (NCI-H460) was 86.5 µM (inactive) and the GI50 (SF-295) was 50.4 µM (inactive). The GI50 (KM12) was 33.5 µM (inactive), the GI50 (K562) was 38 µM (inactive) and the GI50 (OVCAR-3) was 24.8 µM (inactive). For the same compound, the GI50 (COLO 205) was > 100 µM (inactive), the GI50 (MDA-MB-435) was 10.9 µM (inactive) and the GI50 (HT-29) was > 100 µM (inactive). For the same compound, the GI50 (EKVX) was 25.2 µM (inactive), the GI50 (A549) was 32.1 µM (inactive) and the GI50 (HL-60) was 3.24 µM (inactive). The GI50 (SNB-19) was 46.9 µM (inactive), the GI50 (SW-620) was 64.6 µM (inactive) and the GI50 (HCT-116) was 66.5 µM (inactive). The GI50 (SNB-75) was 11.7 µM (inactive), the GI50 (SK-MEL-2) was 53.7 µM (inactive) and the GI50 (UACC-257) was > 100 µM (inactive). The GI50 (NCI-H522) was 4.3 µM (inactive), the GI50 (T47D) was 25.7 µM (inactive) and the GI50 (CCRF-CEM) was 6.15 µM (inactive). The GI50 (OVCAR-4) was 18.3 µM (inactive), the GI50 (OVCAR-5) was 69 µM (inactive) and the GI50 (Malme-3M) was 34.3 µM (inactive). For the same compound, the GI50 (U-251) was 34 µM (inactive), the GI50 (ACHN) was 30.7 µM (inactive) and the GI50 (MCF7) was 89.3 µM (inactive). For the same compound, the GI50 (MOLT-4) was 6.92 µM (inactive), the GI50 (NCI/ADR-RES) was 36.5 µM (inactive) and the GI50 (NCI-H23) was 31.6 µM (inactive). For the same compound, the GI50 (SF-539) was 59.3 µM (inactive), the GI50 (SN12C) was 76 µM (inactive) and the GI50 (SF-268) was 19.1 µM (inactive). For the same compound, the GI50 (MDA-N) was 49.5 µM (inactive), the GI50 (Hs-578T) was 56.5 µM (inactive) and the GI50 (LOX IMVI) was 64.9 µM (inactive). The GI50 (MDA-MB-231) was 82.8 µM (inactive), the GI50 (786-0) was 25.6 µM (inactive) and the GI50 (OVCAR-8) was 62.4 µM (inactive). The GI50 (SK-MEL-28) was 38.6 µM (inactive), the GI50 (RPMI-8226) was 28.8 µM (inactive) and the GI50 (HCC 2998) was 48.1 µM (inactive).
